The values below come from patent publication EP0697407B1, “Pyrimidinedione derivatives and antiarrhythmic compositions containing same” (MITSUI TOATSU CHEMICALS, Inc., priority 1994, dated 1996).

Series [1] in a line: Stability test in acid aqueous solution (Solution 1 of the Japanese Pharmacopoeia, pH 1.2), remaining compound by HPLC. The series is classed as physicochemical. The note with it: Solution 1 (pH 1.2), 2 mg/ml, stirred at 37°C, HPLC. As to the method:
In order to confirm the stability of the compounds of the present invention in an acid aqueous solution, stability was tested on the fumarate of 6-[3-[N-[2-(4-methanesulfonylaminophenyl)ethyl]-N-propylamino]propyl]-1,3-dimethyl-2,4(1H,3H)pyrimidinedione (the compound obtained in Example 118; hereinafter referred to as compound A) which is a compound in accordance with the present invention, and 1,3-dimethyl-6-{2-[N-ethyl-3-phenylpropylamino]ethylamino}2,4(1H,3H)-pyrimidinedione (hereinafter referred to as compound B) which is a pyrimidinedione derivative having a substituted amino group at the 6-position of the pyrimidinedione ring as described in European Publication No. 454,498 A2 and was used for purposes of comparison.
Solution 1 (pH 1.2) described in the Japaense Pharmacopoeia was prepared by adding 7.0 ml of hydrochloric acid and water to 2.0 g of sodium chloride so as to give the final volume of 1,000 ml.
Compounds A and B were dissolved in Solution 1 at a concentration of 2 mg/ml and the resulting solutions were stirred at 37°C. Thus, changes with time in the percentages of the remaining compounds A and B were examined by HPLC.

The test system of series [2] is right Purkinje fiber. In words: Effect on myocardial action potential duration (APD75) in isolated, perfused Purkinje fiber. The series is classed as cell-based, mongrel adult dog. To be noted: Canis lupus familiaris, 20 min, 20 minutes' incubation, field stimulus of 1 Hz, 37°C, read-out: T (%), percent prolongation of myocardial action potential duration (APD75); for activation at 1 µM: Dose 1 x 10^-6 M; for activation at 10 µM: Dose 10 x 10^-6 M; for activation at 100 µM: Dose 100 x 10^-6 M. The method, then:
After a mongrel adult dog was anesthetized by the intravenous administration of 30 mg/kg of pentobarbital, the heart was excised therefrom. Then, the right Purkinje fiber was isolated in a nutrient fluid (i.e., Tyrode's solution). The isolated right Purkinje fiber was fixed in a constant-temperature bath (20 ml) at 37°C and perfused with Tyrode's solution. In this state, the myocardial action potential duration (APD75) was measured before and after the administration of each test compound. Then, the percent prolongation of myocardial action potential duration (T) after the administration of each test compound was calculated according to the following equation. T(%) =(B - A)/(A)x 100 [formula] where A: APD75 before administration B: APD75 after administration
APD75 was measured as follows: A field stimulus of 1 Hz was given to the right Purkinje fiber, and any change in action potential was detected by a glass microelectrode (10-20 MΩ) penetrated into a Purkinje fiber and monitored on an oscilloscope via an amplifier. The waveform on the oscilloscope was analyzed by means of a computer, and the duration beween the point of action potential generation adn the point of 75% repolarization was defined as APD75. The test compounds shown in Table 2 were separately added to the perfusing nutrient fluid, and after 20 minutes' incubation was recorded. This test was carried out according to the method of Sato et al. [S. Sato, K. Hashimoto; Arzneimittel Forschung, 34(1), 3a, 376-380(1984)].

Series [3] concerns ventricular muscle. In words: Effect on ventricular muscle refractory period (ERP) under ventricular pacing in anesthetized dog. The class given is in vivo, mongrel adult dog. To be noted: ventricular pacing at 400 msec. The method, then: According to the method described below, the refractory period was measured before and after the intravenous administration of each test compound, and the percent prolongation of refractory period (ERP) was calculated according to the following equation. ERP prolongation (%) =(W - Y)/(Y)x 100 [formula] where W: Refractory period after administration Y: Refractory period before administration
After a mongrel adult dog was anesthetized by the intravenous (i.v.) administration of 30 mg/kg of pentobarbital, the chest was opened on the right side. Then, a set of silver-silver chloride electrodes spaced by 3 mm was sewn on the right ventricle, and […] electrical stimuli (a duration of 4 msec, and a current intensity equal to twice the threshold) were given at an interval of 400 msec. Thereafter, a small amount of alcohol was injected into a sinus artery in order to destroy the pacemaker activity, and the ventricular refractory period (ERP) was measured under ventricular pacing. Specifically, one train comprised a series of stimuli having an interval of 400 msec, and the interval between trains was usually 400 msec. During measurement of the refractory period, this interval was shortened by decrements of 10 msec, and the interval between trains at which the response to the first stimulus of the train disappeared was regarded as the refractory period. These electrical stimuli were given by programmed stimulation using a heart stimulation apparatus (Diamedical Co., Ltd.; DHM-226-3).

Series [4] in a line: Toxicity test (mortality rate 24 hours after administration). The note with it: mouse, in vivo, ip; 100 mg/kg (i.p.); twenty-four hours after administration; groups of three mice. The method, then: The test compounds were separately administered to mice (ddy strain, male). The administration of each compound was carried out intraperitoneally (i.p.) in a dose of 100 mg/kg. Twenty-four hours after the administration, the mortality rate of the mice (in groups of three) was examined.

By amount remaining is commonly meant what is left of the initial amount, in per cent. As a reminder, the mortality is the percentage killed. Turning to `CCCN(CCCc1cc(=O)n(C)c(=O)n1C)CCc1ccc(NS(C)(=O)=O)cc1` [Example 118, 6-[3-[N-[2-(4-methanesulfonylaminophenyl)ethyl]-N-propylamino]propyl]-1,3-dimethyl-2,4(1H,3H)pyrimidinedione], the “Percentage of remaining compound” value in series [1] (0 hr) is 100%. Further, the share remaining at 3 h in series [1] (jp solution 1, 3 hr, read-out: Percentage of remaining compound) stood at 100%. Moreover, in series [1] (jp solution 1, 6 hr, read-out: Percentage of remaining compound), the share remaining at 6 h came out at 99%. Besides, the activation at 1 µM in series [2] was found to be 16%. In series [2], the activation at 10 µM is 54%. Also, the activation at 100 µM in series [2] was determined as 81%. For the same compound, the “ERP (%), percent prolongation of refractory period” value (from here on “ERP (%), percent prolongation”) in series [3] (Dose 0.1 mg/kg i.v.) is 6.7%; in series [3] (Dose 0.3 mg/kg i.v.), 20.0%; in series [3] (Dose 1.0 mg/kg i.v.), 33.3%. In addition, the mortality at 24 h in series [4] came to 0%.

As for `CCCN(CCCc1cc(=O)n(C)c(=O)n1C)CCOc1ccc(NS(C)(=O)=O)cc1` [Example 121, 6-[3-[N-n-propyl-N-[2-(4-methanesulfonylaminophenoxy)ethyl]amino]propyl]-1,3-dimethyl-2,4(1H,3H)pyrimidinedione], in series [2], the activation at 1 µM is 17%, the activation at 10 µM stood at 68% and the activation at 100 µM came to 103%. The “ERP (%), percent prolongation” value in series [3] (Dose 0.1 mg/kg i.v.) is 6.2%. The “ERP (%), percent prolongation” value in series [3] (Dose 0.3 mg/kg i.v.) amounted to 20.0%. Moreover, in series [3] (Dose 1.0 mg/kg i.v.), the “ERP (%), percent prolongation” value is listed as 33.3%. Besides, the mortality at 24 h in series [4] is 0%.
